Patent publication US6326395A, “Antifungal activity of dicationic molecules” (priority 1999, dated 2001)
Structures can show the parent of a compound that is named as a salt.

System: C. lusitaniae 111.92
Test: antifungal susceptibility testing (MIC, MFC), extended spectrum
Type: cell-based, Candida lusitaniae
Settings: Clavispora lusitaniae
Experimental: Antifungal susceptibility testing for compounds set forth in Examples 1-20 is discussed hereinbelow. […]
In vitro susceptibility testing in the form of Minimum Inhibitory Concentration (MIC) experiments were performed using the broth macrodilution method according to the recommendations of the National Committee for Clinical Laboratory Standards (see 1995 manual). […] Briefly, this procedure specifies an inoculum grown at 35° C. and adjusted to a concentration of 0.5-2.5×10^3 CFU/ml with an incubation of the test performed at 35° C. and reading at 48 hours for all yeasts except for C. neoformans which is interpreted at 72 hr.
(§1) Minimum Fungicidal Concentration (MFC) experiments were adapted from a method by McGinnis (McGinnis, M. R., (1980) "Susceptibility testing and bioassay procedure", p. 431, Academic Press, Inc., New York). […] The lowest drug concentration that yielded three or fewer yeasts colonies was recorded as the MFC. […]
as §1, with “p.431,” for “p. 431,”, “3” for “three”

With `CC(C)NC(=N)c1ccc2nc(-c3ccc4c(c3)Cc3cc(-c5nc6ccc(C(=N)NC(C)C)cc6[nH]5)ccc3-4)[nH]c2c1` [Compound 57, 2,7-Bis[2-(5-N-isopropylamidino)benzimidazoyl]fluorene hydrochloride] the MFC was 3.12 µg/mL and the MIC (48 hours, read-out: MIC80) was 0.78 µg/mL.
